We go through two compounds from patent US8906115B2, “Method for the antimicrobial finishing of textiles and fibers” (Sanitized AG, priority 2006, dated 2014).

Structures are written as SMILES.

The experiment has as its system Staphylococcus aureus 6538 P. Briefly: antibacterial effect / germ reduction of finished textiles after washing, test standard not stated. Format: cell-based. Conditions: less pronounced than tannic acid, gallic acid, stearic acid or L-phenylalanine. The protocol:
The two samples finished in this way are washed at 40° C. and dried between the washing cycles. After 20 and 30 washing cycles, the antibacterial effect against Staphylococcus aureus 6538 P is tested.
In an experimental finishing. 14 kilograms of an orange colored tricot made of polyester/polyamide/elastan are prewashed at 60° C., then 280 grams of L-phenylalanine and 110 liters of water are added. Allow to prerun for 10 minutes, heated to 60° C. at 3° C. per minute and left to run for 15 minutes at 60° C. 80 grams of Sanitized T 99-19 in 2 liters of water are added and left to run for a further 30 minutes at 60° C. The liquor is cooled to 35° C. and then drawn off. 40 liters of water for rinsing are added, left to run for two minutes and the rinse water is drawn off. The textile is discharged via press-off rolls and dried on a tenter at 120° C. After 50 washing cycles in accordance with EN ISO 6330 (6A), washed with the colorfast detergent according to ECE 77, a sample achieves a germ count reduction of factor 100 (log reduction=2.0) compared with the inoculum.

Consider `CCCCCCCCCCCCCCCCCCN` [octadecylamine], for which the “antimicrobial effect after washing when used as primer (P), in words” value is “improvement in the antimicrobial effect after washing”. For `O=C(O)c1ccc(C(=O)O)cc1` [terephthalic acid, benzene-1,4-dicarboxyolic acid], the “antimicrobial effect after washing when used as primer (P), in words” value was “improvement in the antimicrobial effect after washing”.
